Key:
EGFR mutant T790M = target: T1, EGFR mutant T790M (Homo sapiens, UniProt P00533, T790M); assay: Kinase inhibition assay, EGFR mutant T790M; settings: biochemical potency;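 also: truncated human EGFR mutant enzyme preincubated two hours with compound, then ATP plus ULight-PolyGT peptide for one hour, Europium-labeled antibody LANCE detection, IC50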
T1 construct: truncated human JAK3, EGFR mutants such as del E746-A750; purchased Carna Biosciences

[1] = target: T2, EGFR mutant Del19 (E746-A750) (Homo sapiens, UniProt P00533, DEL746-750); assay: Kinase inhibition assay, EGFR del E746-A750; format: biochemical; settings: read-out: EGFR mutants Del19 (E746-A750);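 also: truncated human EGFR mutant kinase, two-hour preincubation with compound, then one-hour reaction with ATP and ULight-PolyGT peptide, LANCE Europium-antibody phosphorylation readout, IC50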
T2 construct: truncated human JAK3, EGFR mutants such as del E746-A750; purchased Carna Biosciences

EGFR mutant L858R = target: T3, EGFR mutant L858R (Homo sapiens, UniProt P00533, L858R); assay: Kinase inhibition assay, EGFR L858R; format: biochemical; settings: read-out: EGFR mutants L858R;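 also: truncated human EGFR L858R kinase with compound preincubation, ULight-PolyGT peptide phosphorylation read by Europium-antibody Lance detection, IC50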
T3 construct: truncated human JAK3, EGFR mutants such as del E746-A750; purchased Carna Biosciences

EGFR mutant L858R/T790M = target: T4, EGFR mutant L858R/T790M (Homo sapiens, UniProt P00533, L858R/T790M); assay: Kinase inhibition assay, EGFR L858R/T790M; format: biochemical; settings: read-out: EGFR mutants L858R/T790M;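 also: truncated human enzyme preincubated two hours with compound, then one hour with one millimolar ATP and ULight-PolyGT peptide, Europium-labeled antibody detection, IC50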
T4 construct: truncated human JAK3, EGFR mutants such as del E746-A750; purchased Carna Biosciences

EGFR mutant Del19/T790M = target: T5, EGFR mutant Del19/T790M (Homo sapiens, UniProt P00533, DEL746-750/T790M); assay: Kinase inhibition assay, EGFR del E746-A750/T790M; format: biochemical; settings: read-out: EGFR mutants Del19/T790M
T5 construct: truncated human JAK3, EGFR mutants such as del E746-A750; purchased Carna Biosciences

JAK3 = target: T6, JAK3 (Homo sapiens, UniProt P52333); assay: Kinase inhibition assay, JAK3; settings: biochemical potency;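 also: IC50 against purified truncated human JAK3 preincubated with compound, then reacted with ATP and ULight-Jak1 peptide, phosphorylation read by Europium-labeled antibody LANCE detection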
T6 construct: EGFR and JAK3 (JH1domain-catalytic) kinases, and mutant forms thereof; purchased Carna Biosciences

SYK = target: T7, SYK (Homo sapiens, UniProt P43405); assay: Kinase inhibition assay, SYK; format: biochemical; settings: biochemical potency;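 also: purified full-length human SYK pre-incubated 30 min with compound, then ULight-TK peptide phosphorylation for 1 h, detected with Europium-labeled antibody in Lance buffer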
T7 construct: Purified human, full-length SYK, KDR; purchased Carna Biosciences

KDR = target: T8, KDR (Homo sapiens, UniProt P35968); assay: Kinase inhibition assay, KDR; format: biochemical; settings: biochemical potency;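 also: purified full-length human KDR, 30 min preincubation with compound, then 1 h reaction with ATP and Ulight-Jak1 peptide substrate, phosphorylation read by Lance Europium antibody detection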
T8 construct: Purified human, full-length SYK, KDR; purchased Carna Biosciences

H2073 (EGFR wildtype) = assay: Cell viability assay, H2073; format: cell-based; settings: NCI-H2073; cellular potency; 72-hour incubation; ATPLite;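 also: NSCLC cell line whose survival relies on wildtype EGFR, treated with serially diluted compound, cytotoxic effect judged from remaining cell viability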
[2] = test system: PC9 (EGFR del E746-A750 mutant); assay: Cell viability assay, PC9; format: cell-based; settings: for Selectivity over wildtype, Wildtype vs mutant H2073/PC9 (fold): cellular potency ratio; for IC50: cellular potency, 72-hour incubation, ATPLite, read-out: EGFR Mutants PC9;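 as to all read-outs here: NSCLC PC9 cells, whose viability relies on EGFR del E746-A750, exposed to serially diluted compound for 72 h at 37 °C, ATPLite read-out, IC50, H2073 as EGFR wildtype line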
[3] = test system: H1975 (EGFR L858R/T790M mutant); assay: Cell viability assay, H1975; format: cell-based; settings: for IC50: Homo sapiens, NCI-H1975, cellular potency, 72-hour incubation, ATPLite, read-out: EGFR Mutants H1975; for Selectivity over wildtype, Wildtype vs mutant H2073/H1975 (fold): cellular potency ratio;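 as to all read-outs here: NSCLC cells whose survival relies on EGFR L858R/T790M, exposed 72 h to serially diluted compound, ATP-based viability readout, with the H2073 line (wildtype EGFR dependent) as wildtype comparator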
p-EGFR wildtype = target: T9, p-EGFR wildtype (Homo sapiens, UniProt P00533); assay: Western analysis, H1299 p-EGFR wildtype; format: cell-based; settings: molecular potency; 4 hours; 3 nM EGF ligand
T9 construct: endogenous in cells; host or cells: H1299

p-EGFR del E746-A750 = target: T10, p-EGFR del E746-A750 (Homo sapiens, UniProt P00533, DEL746-750); assay: Western analysis, PC9 p-EGFR del E746-A750; format: cell-based; settings: for Selectivity over wildtype: p-wildtype over p-EGFR del19: H1299 vs PC9; for IC50: molecular potency, 4 hours, read-out: PC9 p-EGFR del 19 (E746-A750)
T10 construct: phosphorylation of mutant EGFR in NSCLC lines PC9; endogenous in cells; host or cells: PC9

p-EGFR L858R/T790M = target: T11, p-EGFR L858R/T790M (Homo sapiens, UniProt P00533, L858R/T790M); assay: Western analysis, H1975 p-EGFR L858R/T790M; format: cell-based; settings: for Selectivity over wildtype: p-wildtype over p-EGFR L858R, T790M: H1299 vs H1975; for IC50: molecular potency, 4 hours
T11 construct: phosphorylation of mutant EGFR in NSCLC lines H1975; endogenous in cells; host or cells: H1975

T6 sequence (P52333 822-1111 limits assumed): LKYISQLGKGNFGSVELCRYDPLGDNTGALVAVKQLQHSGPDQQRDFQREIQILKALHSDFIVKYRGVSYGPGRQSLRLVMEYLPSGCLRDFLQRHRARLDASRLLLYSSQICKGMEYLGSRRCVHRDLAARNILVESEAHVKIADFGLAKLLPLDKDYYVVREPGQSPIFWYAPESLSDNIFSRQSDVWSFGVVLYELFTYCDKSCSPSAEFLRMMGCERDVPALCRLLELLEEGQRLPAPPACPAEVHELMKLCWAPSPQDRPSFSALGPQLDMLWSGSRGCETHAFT
T3 sequence (P00533 669-1210 L858R limits assumed): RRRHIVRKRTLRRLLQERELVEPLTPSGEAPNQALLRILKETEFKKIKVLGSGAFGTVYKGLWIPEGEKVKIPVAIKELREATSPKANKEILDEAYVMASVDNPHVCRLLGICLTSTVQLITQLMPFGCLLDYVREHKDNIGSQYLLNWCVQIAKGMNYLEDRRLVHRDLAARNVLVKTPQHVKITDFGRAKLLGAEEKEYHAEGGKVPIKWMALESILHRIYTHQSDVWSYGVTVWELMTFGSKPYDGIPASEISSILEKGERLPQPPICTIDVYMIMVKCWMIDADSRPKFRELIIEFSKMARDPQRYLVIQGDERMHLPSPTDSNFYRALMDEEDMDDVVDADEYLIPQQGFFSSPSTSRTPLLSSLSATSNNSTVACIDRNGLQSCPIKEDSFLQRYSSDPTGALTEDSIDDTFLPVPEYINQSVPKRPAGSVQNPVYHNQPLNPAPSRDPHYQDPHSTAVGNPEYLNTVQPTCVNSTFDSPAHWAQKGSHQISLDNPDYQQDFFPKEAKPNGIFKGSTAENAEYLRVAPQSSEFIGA
T10 sequence (P00533 with tags, fused parts or gaps DEL746-750): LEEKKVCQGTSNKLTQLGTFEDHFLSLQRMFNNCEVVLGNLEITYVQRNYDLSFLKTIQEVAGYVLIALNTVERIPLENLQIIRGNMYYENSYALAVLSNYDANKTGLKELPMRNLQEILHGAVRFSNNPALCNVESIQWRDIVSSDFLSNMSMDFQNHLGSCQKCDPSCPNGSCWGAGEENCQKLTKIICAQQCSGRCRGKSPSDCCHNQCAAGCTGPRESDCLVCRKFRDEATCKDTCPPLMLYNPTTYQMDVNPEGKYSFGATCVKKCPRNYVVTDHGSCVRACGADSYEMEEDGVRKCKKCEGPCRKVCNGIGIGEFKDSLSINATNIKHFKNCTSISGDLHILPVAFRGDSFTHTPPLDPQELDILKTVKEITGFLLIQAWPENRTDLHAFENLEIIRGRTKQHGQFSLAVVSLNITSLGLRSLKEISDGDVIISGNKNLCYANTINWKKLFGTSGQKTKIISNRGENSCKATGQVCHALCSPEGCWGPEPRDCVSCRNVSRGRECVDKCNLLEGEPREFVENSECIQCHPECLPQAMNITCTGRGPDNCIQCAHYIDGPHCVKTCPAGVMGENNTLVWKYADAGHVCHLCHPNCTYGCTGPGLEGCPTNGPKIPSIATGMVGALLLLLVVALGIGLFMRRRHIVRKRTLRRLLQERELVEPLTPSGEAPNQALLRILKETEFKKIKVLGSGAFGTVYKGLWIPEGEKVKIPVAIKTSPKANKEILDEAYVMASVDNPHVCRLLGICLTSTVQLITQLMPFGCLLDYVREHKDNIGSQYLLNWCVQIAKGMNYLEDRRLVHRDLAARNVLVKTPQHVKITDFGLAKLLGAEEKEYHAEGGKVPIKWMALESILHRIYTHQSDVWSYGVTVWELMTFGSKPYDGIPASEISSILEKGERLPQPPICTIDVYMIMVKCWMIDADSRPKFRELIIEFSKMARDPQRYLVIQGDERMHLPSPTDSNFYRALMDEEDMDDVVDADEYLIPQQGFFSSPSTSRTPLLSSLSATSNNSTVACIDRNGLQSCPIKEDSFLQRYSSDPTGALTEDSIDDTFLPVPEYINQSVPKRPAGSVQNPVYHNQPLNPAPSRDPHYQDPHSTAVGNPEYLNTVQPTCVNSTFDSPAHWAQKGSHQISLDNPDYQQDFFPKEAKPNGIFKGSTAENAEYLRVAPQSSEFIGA
T5 sequence (P00533 with tags, fused parts or gaps DEL746-750/T790M limits assumed): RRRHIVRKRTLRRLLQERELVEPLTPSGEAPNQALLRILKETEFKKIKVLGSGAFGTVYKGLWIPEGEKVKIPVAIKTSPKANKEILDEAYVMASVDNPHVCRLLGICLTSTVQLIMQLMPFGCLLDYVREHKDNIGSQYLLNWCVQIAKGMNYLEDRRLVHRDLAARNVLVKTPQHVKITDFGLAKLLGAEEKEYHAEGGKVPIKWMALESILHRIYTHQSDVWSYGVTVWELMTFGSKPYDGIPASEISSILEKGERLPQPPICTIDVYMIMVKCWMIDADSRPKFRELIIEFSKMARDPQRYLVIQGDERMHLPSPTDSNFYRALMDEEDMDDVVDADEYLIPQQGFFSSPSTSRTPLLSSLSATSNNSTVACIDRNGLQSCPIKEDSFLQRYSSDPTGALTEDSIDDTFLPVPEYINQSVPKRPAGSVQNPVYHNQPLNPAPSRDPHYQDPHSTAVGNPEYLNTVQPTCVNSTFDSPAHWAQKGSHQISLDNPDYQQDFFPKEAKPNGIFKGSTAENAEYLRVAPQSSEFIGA
T9 sequence (P00533 25-1210): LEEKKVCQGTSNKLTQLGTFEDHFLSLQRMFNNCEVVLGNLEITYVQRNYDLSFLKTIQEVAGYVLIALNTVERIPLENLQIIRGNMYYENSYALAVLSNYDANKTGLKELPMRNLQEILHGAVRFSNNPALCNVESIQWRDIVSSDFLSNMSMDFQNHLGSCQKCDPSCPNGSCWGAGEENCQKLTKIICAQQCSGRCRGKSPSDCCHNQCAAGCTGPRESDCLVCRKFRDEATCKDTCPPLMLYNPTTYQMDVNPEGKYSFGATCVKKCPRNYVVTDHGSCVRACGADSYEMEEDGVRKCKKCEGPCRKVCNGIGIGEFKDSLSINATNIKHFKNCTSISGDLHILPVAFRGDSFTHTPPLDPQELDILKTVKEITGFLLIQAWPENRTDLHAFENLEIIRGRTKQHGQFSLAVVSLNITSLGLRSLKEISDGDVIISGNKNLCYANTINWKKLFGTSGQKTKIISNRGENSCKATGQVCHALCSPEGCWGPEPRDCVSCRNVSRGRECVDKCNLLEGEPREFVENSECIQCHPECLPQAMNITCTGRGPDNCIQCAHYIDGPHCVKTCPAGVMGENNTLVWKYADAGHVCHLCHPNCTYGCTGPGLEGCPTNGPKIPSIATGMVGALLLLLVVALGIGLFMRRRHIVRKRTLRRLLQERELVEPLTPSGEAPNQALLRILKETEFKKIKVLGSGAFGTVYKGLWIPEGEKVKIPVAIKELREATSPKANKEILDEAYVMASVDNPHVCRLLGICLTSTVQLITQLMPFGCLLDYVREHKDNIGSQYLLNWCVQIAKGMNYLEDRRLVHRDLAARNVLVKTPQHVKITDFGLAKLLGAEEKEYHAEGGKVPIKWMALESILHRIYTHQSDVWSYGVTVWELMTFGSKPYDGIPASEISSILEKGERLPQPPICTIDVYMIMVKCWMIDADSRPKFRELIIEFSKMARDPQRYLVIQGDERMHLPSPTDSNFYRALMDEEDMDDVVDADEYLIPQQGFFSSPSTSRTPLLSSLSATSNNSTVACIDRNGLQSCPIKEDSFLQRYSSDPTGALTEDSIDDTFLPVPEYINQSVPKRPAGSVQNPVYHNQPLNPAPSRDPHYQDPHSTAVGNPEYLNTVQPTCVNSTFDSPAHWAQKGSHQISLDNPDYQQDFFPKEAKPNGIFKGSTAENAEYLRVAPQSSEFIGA
T4 sequence (P00533 669-1210 T790M/L858R limits assumed): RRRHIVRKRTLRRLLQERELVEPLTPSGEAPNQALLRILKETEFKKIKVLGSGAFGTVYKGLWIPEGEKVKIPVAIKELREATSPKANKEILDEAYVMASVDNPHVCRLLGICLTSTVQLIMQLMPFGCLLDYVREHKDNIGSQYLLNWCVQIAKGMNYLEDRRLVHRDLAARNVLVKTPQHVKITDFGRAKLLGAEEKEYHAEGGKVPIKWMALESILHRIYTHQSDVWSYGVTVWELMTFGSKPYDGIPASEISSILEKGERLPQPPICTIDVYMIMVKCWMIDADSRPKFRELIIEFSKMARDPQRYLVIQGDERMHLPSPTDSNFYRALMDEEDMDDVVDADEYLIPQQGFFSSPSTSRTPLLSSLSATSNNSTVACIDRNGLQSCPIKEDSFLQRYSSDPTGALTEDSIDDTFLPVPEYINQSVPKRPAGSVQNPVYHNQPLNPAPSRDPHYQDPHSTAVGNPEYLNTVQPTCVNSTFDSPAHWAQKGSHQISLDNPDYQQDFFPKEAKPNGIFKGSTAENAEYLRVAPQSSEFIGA
T2 sequence (P00533 with tags, fused parts or gaps DEL746-750 limits assumed): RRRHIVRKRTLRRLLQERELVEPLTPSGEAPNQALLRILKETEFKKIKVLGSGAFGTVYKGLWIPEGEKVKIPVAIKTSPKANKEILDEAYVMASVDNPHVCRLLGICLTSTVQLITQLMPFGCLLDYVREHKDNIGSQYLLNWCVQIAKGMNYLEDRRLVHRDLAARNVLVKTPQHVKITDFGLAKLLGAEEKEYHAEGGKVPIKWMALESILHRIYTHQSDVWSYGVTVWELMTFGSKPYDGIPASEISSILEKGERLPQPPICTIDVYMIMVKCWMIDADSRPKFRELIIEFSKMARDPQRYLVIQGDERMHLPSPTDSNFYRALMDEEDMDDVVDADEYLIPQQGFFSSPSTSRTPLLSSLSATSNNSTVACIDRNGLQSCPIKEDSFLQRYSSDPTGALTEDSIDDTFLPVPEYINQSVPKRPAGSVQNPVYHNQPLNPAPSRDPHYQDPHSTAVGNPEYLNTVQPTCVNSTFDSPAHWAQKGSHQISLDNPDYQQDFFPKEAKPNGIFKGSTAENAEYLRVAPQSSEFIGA

IC50 (EGFR mutant T790M) [nM]	IC50 [1] [nM]	IC50 (EGFR mutant L858R) [nM]	IC50 (EGFR mutant L858R/T790M) [nM]	IC50 (EGFR mutant Del19/T790M) [nM]	IC50 (JAK3) [nM]	IC50 (SYK) [nM]	IC50 (KDR) [nM]	IC50 (H2073 (EGFR wildtype)) [nM]	IC50 [2] [nM]	IC50 [3] [nM]	IC50 (p-EGFR wildtype) [nM]	Selectivity over wildtype: p-wildtype over p-EGFR del19 (p-EGFR del E746-A750)	IC50 (p-EGFR del E746-A750) [nM]	Selectivity over wildtype: p-wildtype over p-EGFR L858R, T790M (p-EGFR L858R/T790M)	IC50 (p-EGFR L858R/T790M) [nM]	Compound	Selectivity over wildtype, Wildtype vs mutant H2073/PC9 (fold) [2] [fold]	Selectivity over wildtype, Wildtype vs mutant H2073/H1975 (fold) [3]
< 20	< 20	< 20	< 20	< 20	< 20	201 to 1000	> 1000	> 1000	< 20	20 to 200	> 1000	>200 fold	< 20	20-100 fold	< 20	C=CC(=O)Nc1cc(Nc2nccc(-n3cc(CN4CCC4)c(C)n3)n2)c(OC)cc1N1CCOCC1 [Compound 14, N-(5-(4-(4-(azetidin-1-ylmethyl)-3-methyl-1H-pyrazol-1-yl)pyrimidin-2-ylamino)-4-methoxy-2-morpholinophenyl)acrylamide]	>200	20-100 fold
< 20	< 20	< 20	< 20	< 20	< 20	20 to 200	> 1000	> 1000	< 20	< 20	201 to 1000	101-200 fold	< 20	20-100 fold	< 20	C=CC(=O)Nc1cc(Nc2nccc(-n3cc(CN(C)C)c(C4CC4)n3)n2)c(OC)cc1N1CCOCC1 [Compound 74, N-(5-(4-(3-cyclopropyl-4-((dimethylamino)methyl)-1H-pyrazol-1-yl)pyrimidin-2-ylamino)-4-methoxy-2-morpholinophenyl)acrylamide]	>200	>200 fold
< 20	< 20	< 20	< 20	< 20	20 to 200	> 1000	> 1000	> 1000	< 20	< 20	> 1000	>200 fold	< 20	101-200 fold	< 20	C=CC(=O)Nc1cc(Nc2nccc(-n3cc(CN4CCC4)c(-c4ccccc4)n3)n2)c(OC)cc1N1CCOCC1 [Compound 78, N-(5-(4-(4-(azetidin-1-ylmethyl)-3-phenyl-1H-pyrazol-1-yl)pyrimidin-2-ylamino)-4-methoxy-2-morpholinophenyl)acrylamide]	>200	>200 fold
< 20	< 20	< 20	< 20	< 20	< 20	20 to 200	> 1000	> 1000	< 20	< 20	201 to 1000	20-100 fold	< 20	20-100 fold	< 20	C=CC(=O)Nc1cc(Nc2ncc(C)c(-n3cc(CN(C)C)c(C4CC4)n3)n2)c(OC)cc1N1CCOCC1 [Compound 122, N-(5-(4-(3-cyclopropyl-4-((dimethylamino)methyl)-1H-pyrazol-1-yl)-5-methylpyrimidin-2-ylamino)-4-methoxy-2-morpholinophenyl)acrylamide]	>200	>200 fold

From USRE50528E1, “Compounds and compositions for modulating EGFR mutant kinase activities” (Yuhan Corporation, priority 2014, dated 2025)
